Data from patent publication US8258138B2, “Potassium channel blockers” (Xention Limited, priority 2008, dated 2012).

Key:
human Kv1.3 = target: T1, human Kv1.3 (Homo sapiens, UniProt P22001); experiment: Kv1.3 Autopatch electrophysiology (whole cell patch-clamp, inhibition of charge movement); format: cell-based; conditions: compound at 1 μM; cells stably transfected with human Kv1.3; room temperature; total charge during step to +30 mV relative to control; read-out: hKv1.3 % inh.
T1 construct: expressed in transfected cells; host or cells: stably transfected cells grown in medium for CHO cells
How it was run: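 Whole-cell AutoPatch recordings were made at room temperature from cells held at −80 mV, with 500 ms steps to +30 mV every 15 s. The bath contained 10 mM KCl, pH 7.4, and the pipette K-gluconate/EGTA, pH 7.2.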

hKv1.5 = hKv1.5 (Homo sapiens, UniProt P22460); experiment: Kv1.5 Autopatch electrophysiology (whole cell patch-clamp); format: cell-based; conditions: compound at 1 μM; room temperature (22-24° C.); total charge during step to 0 mV; read-out: hKv1.5 % inh.
Protocol: Kv1.5 Autopatch Electrophysiology Method
The external bathing solution contained (in mM): 150 NaCl, 10 KCl, […], 3 MgCl2, 1 CaCl2, 10 HEPES, pH 7.4. Patch pipettes were filled with an electrode solution of composition (in mM): 160 KCl, 0.5 MgCl2, 10 HEPES, 1 EGTA, pH 7.4 with KOH.
Compounds were dissolved in DMSO (100%) and made up in the external bather at a concentration of 1 μM. All experiments were conducted at room temperature (22-24° C.).
A cell suspension (10 ml), with a density of 100,000 cells/ml, was aliquoted into a 15 ml centrifuge tube and transferred to an incubator (37° C., 5% CO2) for approximately one hour before use. Following 60 min incubation, a tube was taken and centrifuged at 1000 rpm for 4 mins at room temperature. 9.5 ml supernatant was thence discarded, leaving a cell pellet at the bottom of the tube. The pellet was then resuspended using 100 μl of cold (4° C.), filtered (0.22 μm), 0.2% BSA/bather solution (0.02 g BSA/10 ml bather). The bottom of the tube was manually agitated gently until the solution became cloudy with cells. The 100 μl cell resuspension solution was then stored on the bench at 4° C. (using a Peltier-based temperature control device) until used.
A length of capillary glass (1B150F-4, WPI) was dipped into the cell suspension solution, such that ˜3 cm column of fluid was taken up by capillary action. A Ag/AgCl wire was dropped into the non-dipped end of the capillary also. The outside of the solution-filled end of the capillary was then dried and the capillary was loaded into the AutoPatch™.
Borosilicate glass patch pipettes (from 1.5 mm OD, thin-walled filamented, GC150-TF capillary glass, Harvard) were pulled using a DMZ pipette puller (Zeitz Instruments), and were back-filled using the internal pipette solution, being careful that no bubbles remain at the tip or in the body of the pipette. Patch pipettes typically had resistances of 2.3-3.5 MΩ. Once filled, the pipette tip and a proportion of the shaft (˜15 mm) were dipped into Sigmacote (Sigma). The recording pipette was then loaded into the AutoPatch™ Automated patch-clamping was initiated by the operator, but thereafter AutoPatch.exe continued the experiment providing that pre-set conditions and criteria were satisfied.
Whole cell patch-clamp recordings were made using the AutoPatch™ rig, which incorporated an EPC9 amplifier (HEKA, Germany) under control of Pulse software (v8.54, HEKA, Germany), a motion controller with 2 translators (Newport, UK), valve controller (VF1) and a c-level suction device all at room temperature (22-24° C.). This equipment was completely under the control of AutoPatch.exe and operator intervention was only made when there was a requirement to refill the drug reservoirs or to prevent the loss of a cell due to a technical error. Cells with an Rseries greater than 18 MΩ were discounted from the experiment.
Qualification stages prior to perfusion and drug application ensured that the observed current met the criteria for the experiment. Only those cells with an IK>500 pA were used for experiments. Cells were continuously perfused with external solution at a flow rate of 1.8-2 ml/minute. […] Online analysis of the hKv1.5 current during the application of compounds was performed by the AutoPatch™ software. Voltage-step protocols and analysis of data was performed as described for conventional electrophysiology.
Electrophysiology voltage-step protocols and analysis of data was performed as follows. Data was sampled at 5 kHz, and filtered with a −3 dB bandwidth of 2.5 kHz. Cells were held at a voltage of −80 mV. Currents were evoked to a voltage step for 1000 ms in duration at 0 mV every 5 s. Currents were analysed using Pulsefit software (v8.54, HEKA, Germany), with the total charge measured during the whole of the voltage step. All other plots were produced using Igor Pro (WaveMetrics).

hKv1.5, sequence (P22460 whole entry): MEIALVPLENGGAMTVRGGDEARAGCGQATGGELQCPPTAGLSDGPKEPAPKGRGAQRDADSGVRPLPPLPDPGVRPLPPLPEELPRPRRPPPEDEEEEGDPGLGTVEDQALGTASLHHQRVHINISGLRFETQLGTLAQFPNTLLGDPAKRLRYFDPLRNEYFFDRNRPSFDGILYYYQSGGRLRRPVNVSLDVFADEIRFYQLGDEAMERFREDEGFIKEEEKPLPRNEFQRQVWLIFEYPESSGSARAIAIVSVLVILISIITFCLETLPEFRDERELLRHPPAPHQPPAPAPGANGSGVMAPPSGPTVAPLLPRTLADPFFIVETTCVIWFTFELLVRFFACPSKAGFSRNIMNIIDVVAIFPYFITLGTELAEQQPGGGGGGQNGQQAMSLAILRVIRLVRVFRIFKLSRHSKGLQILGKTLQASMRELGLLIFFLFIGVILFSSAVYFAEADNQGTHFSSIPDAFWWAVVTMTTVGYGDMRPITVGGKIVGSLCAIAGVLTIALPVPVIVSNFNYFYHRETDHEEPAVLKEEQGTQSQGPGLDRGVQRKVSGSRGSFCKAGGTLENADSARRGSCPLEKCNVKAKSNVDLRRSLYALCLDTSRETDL
T1 sequence (P22001 whole entry): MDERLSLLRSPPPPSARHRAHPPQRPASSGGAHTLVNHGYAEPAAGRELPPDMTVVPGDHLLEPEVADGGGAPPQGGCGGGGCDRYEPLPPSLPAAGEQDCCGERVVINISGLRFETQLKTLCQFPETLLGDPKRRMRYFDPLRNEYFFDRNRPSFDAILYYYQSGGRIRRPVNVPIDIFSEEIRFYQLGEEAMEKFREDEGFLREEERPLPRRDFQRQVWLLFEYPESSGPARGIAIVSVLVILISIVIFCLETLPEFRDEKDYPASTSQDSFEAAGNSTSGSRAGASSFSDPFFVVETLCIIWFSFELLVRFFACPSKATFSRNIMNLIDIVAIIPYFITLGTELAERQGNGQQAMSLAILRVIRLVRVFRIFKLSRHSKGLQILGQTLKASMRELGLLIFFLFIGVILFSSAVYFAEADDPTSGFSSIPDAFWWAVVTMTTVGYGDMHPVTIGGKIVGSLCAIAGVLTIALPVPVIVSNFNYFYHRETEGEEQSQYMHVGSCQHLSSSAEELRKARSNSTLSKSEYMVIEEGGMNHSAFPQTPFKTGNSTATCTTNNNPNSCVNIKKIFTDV

Row | Compound | inhibition at 1 µM (human Kv1.3) | inhibition at 1 µM (hKv1.5)
1 | Cc1nn(C)cc1S(=O)(=O)N(Cc1ccccc1)c1ccc(C(=O)N2CCN(c3ccccc3)CC2)cc1 [Example 46, 1,3-Dimethyl-1H-pyrazole-4-sulfonic acid benzyl-[4-(4-phenyl-piperazine-1-carbonyl)-phenyl]-amide] | 66% | 62.9%
2 | Cn1cnc(S(=O)(=O)N(Cc2ccccc2)c2ccc(C(=O)N3CCOC(c4ccccc4)C3)cc2F)c1 (stereo not shown) [Example 68, 1-Methyl-1H-imidazole-4-sulfonic acid benzyl-[2-fluoro-4-(2-phenyl-morpholine-4-carbonyl)-phenyl]-amide] | 90% | 62.8%
3 | Cn1cnc(S(=O)(=O)N(Cc2cccc(Cl)c2)c2ccc(C(=O)N3CCCCC3)cc2)c1 [Example 93, 1-Methyl-1H-imidazole-4-sulfonic acid (3-chloro-benzyl)-[4-(piperidine-1-carbonyl)-phenyl]-amide] | 67% | 43.4%
4 | COc1ccc(C2CCCN(C(=O)c3ccc(N(Cc4ccc(Cl)cc4)S(=O)(=O)c4ccccc4)cc3)C2)cc1 (stereo not shown) [Example 57, N-(4-Chloro-benzyl)-N-{4-[3-(4-methoxy-phenyl)-piperidine-1-carbonyl]-phenyl}-benzenesulfonamide] | 47% | 45.2%
5 | CN1CCN(C(=O)c2ccc(N(Cc3ccccc3)S(=O)(=O)c3ccn(C)n3)cc2)CC1c1ccccc1 (stereo not shown) [Example 90, 1-Methyl-1H-pyrazole-3-sulfonic acid benzyl-[4-(4-methyl-3-phenyl-piperazine-1-carbonyl)-phenyl]-amide] | 76% | 40.8%
6 | Cc1cc(N(Cc2ccccc2)S(=O)(=O)c2ccccc2)ccc1C(=O)N1CCN(c2ccccc2)CC1 [Example 52, N-Benzyl-N-[3-methyl-4-(4-phenyl-piperazine-1-carbonyl)-phenyl]-benzenesulfonamide] | 67% | 93.6%
7 | O=C(c1ccc(N(Cc2cccc(F)c2)S(=O)(=O)c2ccccc2)cc1)N1CCN(c2ccccc2)CC1 [Example 31, N-(3-Fluoro-benzyl)-N-[4-(4-phenyl-piperazine-1-carbonyl)-phenyl]-benzenesulfonamide] | 67% | 61.6%
8 | O=C(c1ccc(N(Cc2ccccc2)S(=O)(=O)c2cccs2)cc1)N1CCN(c2ccccc2)CC1 [Example 17, Thiophene-2-sulfonic acid benzyl-[4-(4-phenyl-piperazine-1-carbonyl)-phenyl]-amide] | 34% | 47.3%
9 | O=C(c1ccc(N(Cc2ccccc2)S(=O)(=O)c2ccccc2)cc1)N1CCN(c2ccccc2)CC1 [Example 9, N-Benzyl-N-[4-(4-phenyl-piperazine-1-carbonyl)-phenyl]-benzenesulfonamide] | 99% | 64.5%
10 | O=C(c1ccc(N(Cc2cccc(Cl)c2)S(=O)(=O)c2ccccc2)cc1)N1CCN(c2ccccc2)CC1 [Example 11, N-(3-Chloro-benzyl)-N-[4-(4-phenyl-piperazine-1-carbonyl)-phenyl]-benzenesulfonamide] | 92% | 73.6%
11 | Cn1cnc(S(=O)(=O)N(Cc2ccc(Cl)cc2)c2ccc(C(=O)N3CCCC(c4ccccc4)C3)cc2)c1 (stereo not shown) [Example 61, 1-Methyl-1H-imidazole-4-sulfonic acid (4-chloro-benzyl)-[4-(3-phenyl-piperidine-1-carbonyl)-phenyl]-amide] | 89% | 67.5%
